We go through 21 compounds from patent US8415351B2 (priority 2007, dated 2013).

For experiment [1], the target named is T1, HCV polymerase 1A (Δ21 NS5B, H77) (Hepatitis C virus genotype 1a, UniProt P27958).
T1 construct: 20 to 50 nM Δ21 NS5B
In words: biochemical. To be noted: IC50 1a. In short, it runs like this:
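Incorporation of 1 μM ^3H-UTP, with 20 μM each of CTP and ATP on 5 nM template RNA, ran 2–4 h at room temperature. Spermine-precipitated product was filtered and scintillation-counted. IC50 came from tight-binding non-linear regression of cpm against inhibitor concentration.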

For experiment [2], the target named is T2, HCV polymerase 1B (Δ21 NS5B, BK) (Hepatitis C virus genotype 1b, UniProt P26663).
T2 construct: 20 to 50 nM Δ21 NS5B
T2 sequence (P26663 2420-2989, stated change not applied): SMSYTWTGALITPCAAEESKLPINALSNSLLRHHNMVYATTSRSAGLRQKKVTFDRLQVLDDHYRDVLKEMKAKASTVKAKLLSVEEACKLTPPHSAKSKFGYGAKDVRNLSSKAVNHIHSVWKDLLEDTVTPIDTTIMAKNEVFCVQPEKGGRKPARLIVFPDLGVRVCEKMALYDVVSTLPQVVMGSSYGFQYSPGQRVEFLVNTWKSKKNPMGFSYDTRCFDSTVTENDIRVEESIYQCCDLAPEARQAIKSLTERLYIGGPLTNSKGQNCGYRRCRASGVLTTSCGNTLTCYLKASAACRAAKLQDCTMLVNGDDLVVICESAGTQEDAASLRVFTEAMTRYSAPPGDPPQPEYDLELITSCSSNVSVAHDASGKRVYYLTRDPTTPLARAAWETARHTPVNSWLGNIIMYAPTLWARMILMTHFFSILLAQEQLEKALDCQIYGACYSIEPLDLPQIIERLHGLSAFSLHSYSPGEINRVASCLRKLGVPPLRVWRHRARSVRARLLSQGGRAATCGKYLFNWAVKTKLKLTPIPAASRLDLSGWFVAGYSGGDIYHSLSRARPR
In words: biochemical. In short, it runs like this: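 Δ21 NS5B (genotype 1b, BK […]) preincubated 15 min RT with inhibitor, 2 mM MnCl2, pH 7.4, 60–125 μM GTP; started with 20 μM CTP/ATP, 1 μM 3H-UTP, 5 nM template RNA, run 2–4 h RT. Spermine-precipitated RNA filter-captured, scintillation counted; IC50 from tight-binding (Morrison) fit.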

Experiment [3] relates to genotype 1a-H77 subgenomic replicon cell line. Nature of the experiment: microbe, parasite or virus in culture. In kind it is cell-based, HCV. To be noted: Hepatitis C virus, read-out: EC50 1a.
Experiment [4] concerns genotype 1b-Con1 subgenomic replicon cell line. Nature of the experiment: microbe, parasite or virus in culture. In kind it is cell-based, HCV. The following applies: Hepatitis C virus, read-out: EC50 1b.

pEC50, pIC50: −log10 of the molar value.

T1 sequence (P27958 2421-2990, stated change not applied): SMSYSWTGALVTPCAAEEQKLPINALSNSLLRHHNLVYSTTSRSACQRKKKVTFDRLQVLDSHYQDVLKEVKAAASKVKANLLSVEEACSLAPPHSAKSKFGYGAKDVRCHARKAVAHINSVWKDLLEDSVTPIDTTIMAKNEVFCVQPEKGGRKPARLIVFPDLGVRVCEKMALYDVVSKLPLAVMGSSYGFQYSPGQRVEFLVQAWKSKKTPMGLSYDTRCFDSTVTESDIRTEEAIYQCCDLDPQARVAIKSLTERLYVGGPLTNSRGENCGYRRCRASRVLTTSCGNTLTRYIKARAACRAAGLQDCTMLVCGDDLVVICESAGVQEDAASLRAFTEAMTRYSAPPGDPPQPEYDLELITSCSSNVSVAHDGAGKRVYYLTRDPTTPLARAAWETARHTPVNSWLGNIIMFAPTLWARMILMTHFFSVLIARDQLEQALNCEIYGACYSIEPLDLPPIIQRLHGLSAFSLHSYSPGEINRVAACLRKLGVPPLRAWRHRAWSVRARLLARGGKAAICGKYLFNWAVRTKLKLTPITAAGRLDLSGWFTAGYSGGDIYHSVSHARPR

As usually defined, the pIC50 is the IC50 on a negative log10 scale, so that one unit is a factor of ten. Low values mean a high IC50, high ones a low IC50. As a reminder, the pEC50 is the EC50 on a negative log10 scale, so that one unit is a factor of ten. `COc1ccc(-c2cc(N3CCC(=O)NC3=O)cc(C(C)(C)C)c2OC)cc1/C=N/NS(C)(=O)=O` [IA-L0-1.5, (E)-N′-((3′-tert-butyl-5′-(2,4-dioxotetrahydropyrimidin-1(2H)-yl)-2′,4-dimethoxy-biphenyl-3-yl)methylene)methanesulfonohydrazide]: the pIC50 in experiment [1] and in experiment [2] was 6.00 to 7.00 throughout. Moreover, the negative logarithm of the EC50 (pEC50) in experiment [3] and in experiment [4] was less than 6.00 each time.

For `COc1c(-c2ccc(/C=N/NS(C)(=O)=O)c(F)c2F)cc(N2CCC(=O)NC2=O)cc1C(C)(C)C` [IA-L0-1.6, (E)-N′-((3′-tert-butyl-5′-(2,4-dioxotetrahydropyrimidin-1(2H)-yl)-2,3-difluoro-2′-methoxybiphenyl-4-yl)methylene)methanesulfonohydrazide], the pIC50 in experiment [1] and in experiment [2] was 7.00 to 8.00 in each case. The pEC50 is 6.00 to 7.00 in experiment [3] and 7.00 to 8.00 in experiment [4].

As for `CN(Cc1csc(NC(=O)c2cc(N3CCC(=O)NC3=O)cc(C(C)(C)C)c2O)c1)S(C)(=O)=O` [IA-L3-1.95, 3-tert-butyl-5-(2,4-dioxotetrahydropyrimidin-1(2H)-yl)-2-hydroxy-N-(4-((N-methylmethylsulfonamido)methyl)thiophen-2-yl)benzamide], the pIC50 in experiment [1] was 6.00 to 7.00; in experiment [2] it was 7.00 to 8.00. Further, the pEC50 in experiment [3] and in experiment [4] was less than 6.00 throughout.

Turning to `COc1c(C(=O)Nc2ccccc2)cc(N2CCC(=O)NC2=O)cc1C(C)(C)C` [IA-L3-1.24, 3-tert-butyl-5-(2,4-dioxotetrahydropyrimidin-1(2H)-yl)-2-methoxy-N-phenylbenzamide], the pIC50 in experiment [1] and in experiment [2] was 6.00 to 7.00 each time. Moreover, the pEC50 in experiment [3] and in experiment [4] was less than 6.00 each time.

For the compound `COc1c(NC(=O)c2ccc(NS(C)(=O)=O)cc2Cl)cc(N2CCC(=O)NC2=O)cc1C(C)(C)C` [IA-L4-1.12, N-(3-tert-butyl-5-(2,4-dioxotetrahydropyrimidin-1(2H)-yl)-2-methoxyphenyl)-2-chloro-4-(methylsulfonamido)benzamide], the pIC50 in experiment [1] and in experiment [2] was 7.00 to 8.00 throughout. The pEC50 in experiment [3] and in experiment [4] was 6.00 to 7.00 in each case.

In the case of `COc1cc(NS(C)(=O)=O)ccc1NC(=O)c1cc(N2CCC(=O)NC2=O)cc(C(C)(C)C)c1O` [IA-L3-1.119, 3-tert-butyl-5-(2,4-dioxotetrahydropyrimidin-1(2H)-yl)-2-hydroxy-N-(2-methoxy-4-(methylsulfonamido)phenyl)benzamide], the values for the pIC50 in experiment [1] and in experiment [2] were 7.00 to 8.00 and greater than 8.00, respectively. Also, the pEC50 is 6.00 to 7.00 in experiment [3] and 7.00 to 8.00 in experiment [4].

As to `COc1c(C#Cc2ccc(NS(C)(=O)=O)nc2)cc(N2CCC(=O)NC2=O)cc1C(C)(C)C` [IA-L2-1.26, N-(5-((3-tert-butyl-5-(2,4-dioxotetrahydropyrimidin-1(2H)-yl)-2-methoxyphenyl)ethynyl)-pyridin-2-yl)methanesulfonamide 2,2,2-trifluoroacetate], the negative logarithm of the IC50 (pIC50) in experiment [1] and in experiment [2] was 7.00 to 8.00 throughout. Moreover, the pEC50 in experiment [3] and in experiment [4] was 7.00 to 8.00 in each case.

On to `CC(C)(C)c1cc(N2CCC(=O)NC2=O)cc(C(=O)Nc2ccc(S(C)(=O)=O)cc2)c1O` [IA-L3-1.21, 3-tert-butyl-5-(2,4-dioxotetrahydropyrimidin-1(2H)-yl)-2-hydroxy-N-(4-(methylsulfonyl)phenyl)benzamide], for which the results for the pIC50 in experiment [1] and in experiment [2] were less than 6.00 and 6.00 to 7.00, respectively. For the same compound, the pEC50 in experiment [3] and in experiment [4] was less than 6.00 each time.

`CC(C)(C)c1cc(C#Cc2ccc(NS(C)(=O)=O)cc2Cl)cc(N2CCC(=O)NC2=O)c1` [IA-L2-1.3, N-(4-((3-tert-butyl-5-(2,4-dioxotetrahydropyrimidin-1(2H)-yl)phenyl)ethynyl)-3-chlorophenyl)methanesulfonamide]: the pIC50 in experiment [1] and in experiment [2] was greater than 8.00 throughout. The pEC50 in experiment [3] was 7.00 to 8.00; in experiment [4] it was greater than 8.00.

Regarding `COc1c(C#Cc2ccc(NS(C)(=O)=O)c3ccccc23)cc(N2CCC(=O)NC2=O)cc1C(C)(C)C` [IA-L2-2.1, N-(4-((3-tert-butyl-5-(2,4-dioxotetrahydropyrimidin-1(2H)-yl)-2-methoxyphenyl)ethynyl)-naphthalen-1-yl)methanesulfonamide], the pIC50 in experiment [1] and in experiment [2] was 7.00 to 8.00 each time. For the same compound, the pEC50 in experiment [3] and in experiment [4] was 6.00 to 7.00 throughout.

Consider `CCC(=O)N(c1ccc(NC(=O)c2cc(N3CCC(=O)NC3=O)cc(C(C)(C)C)c2OC)cc1)S(C)(=O)=O` [IA-L3-1.70, 3-tert-butyl-5-(2,4-dioxotetrahydropyrimidin-1(2H)-yl)-2-methoxy-N-(4-(N-(methylsulfonyl)propionamido)phenyl)benzamide], for which the pIC50 in experiment [1] and in experiment [2] was less than 6.00 each time. For the same compound, the figures for the pEC50 in experiment [3] and in experiment [4] were 6.00 to 7.00 and 7.00 to 8.00, respectively.

Regarding `COc1c(-c2ccc3c(c2)CCC3CNS(C)(=O)=O)cc(-n2ccc(=O)[nH]c2=O)cc1C(C)(C)C` (stereo not drawn) [IB-L0-2.17, N-((5-(3-tert-butyl-5-(2,4-dioxo-3,4-dihydropyrimidin-1(2H)-yl)-2-methoxyphenyl)-2,3-dihydro-1H-inden-1-yl)methyl)methanesulfonamide], the pIC50 in experiment [1] is greater than 8.00; in experiment [2], 7.00 to 8.00. The values for the pEC50 in experiment [3] and in experiment [4] were 7.00 to 8.00 and greater than 8.00, respectively.

Consider `CC(C)(C)c1cc(N2CCC(=O)NC2=O)cc(C(=O)Nc2ccc(CC(=O)O)cc2)c1O` [IA-L3-1.15, 2-(4-(3-tert-butyl-5-(2,4-dioxotetrahydropyrimidin-1(2H)-yl)-2-hydroxybenzamido)phenyl)-acetic acid], for which the pIC50 in experiment [1] was less than 6.00; in experiment [2], 6.00 to 7.00. The pEC50 in experiment [3] and in experiment [4] was less than 6.00 throughout.

As to `CNS(=O)(=O)Cc1ccc(NC(=O)c2cc(N3CCC(=O)NC3=O)cc(C(C)(C)C)c2OC)cc1` [IA-L3-1.31, 3-tert-butyl-5-(2,4-dioxotetrahydropyrimidin-1(2H)-yl)-2-methoxy-N-(4-(N-methylsulfamoylmethyl)phenyl)benzamide], the pIC50 in experiment [1] and in experiment [2] was less than 6.00 each time. Further, the pEC50 in experiment [3] and in experiment [4] was less than 6.00 throughout.

Regarding `CN(c1ccc(NC(=O)c2cc(N3CCC(=O)NC3=O)cc(C(C)(C)C)c2O)cc1)S(C)(=O)=O` [IA-L3-1.4, 3-tert-butyl-5-(2,4-dioxotetrahydropyrimidin-1(2H)-yl)-2-hydroxy-N-(4-(N-methylmethylsulfonamido)phenyl)benzamide], the pIC50 was 6.00 to 7.00 in experiment [1] and 7.00 to 8.00 in experiment [2]. The pEC50 in experiment [3] and in experiment [4] was less than 6.00 each time.

On to `CC(C)(C)c1cc(N2CCC(=O)NC2=O)cc(C(=O)Nc2ccccc2)c1O` [IA-L3-1.3, 3-tert-butyl-5-(2,4-dioxotetrahydropyrimidin-1(2H)-yl)-2-hydroxy-N-phenylbenzamide], for which the pIC50 in experiment [1] is less than 6.00; in experiment [2], 6.00 to 7.00. In addition, the pEC50 in experiment [3] and in experiment [4] was less than 6.00 throughout.

With `COc1c(-c2ccc3c(c2)CC[C@@H]3CNS(C)(=O)=O)cc(-n2ccc(=O)[nH]c2=O)cc1C(C)(C)C` (single isomer, unassigned) [IB-L0-2.9], the pIC50 in experiment [1] and in experiment [2] was greater than 8.00 in each case. Besides, the pEC50 in experiment [3] and in experiment [4] was greater than 8.00 in each case.

As for `COc1c(NC(=O)c2ccccc2)cc(N2CCC(=O)NC2=O)cc1C(C)(C)C` [IA-L4-1.8, N-(3-tert-butyl-5-(2,4-dioxotetrahydropyrimidin-1(2H)-yl)-2-methoxyphenyl)benzamide], the pIC50 in experiment [1] was less than 6.00; in experiment [2], 6.00 to 7.00. The pEC50 was less than 6.00 in experiment [3] and 6.00 to 7.00 in experiment [4].

With `COc1c(-c2cccc(/C=N/NS(C)(=O)=O)c2)cc(N2CCC(=O)NC2=O)cc1C(C)(C)C` [IA-L0-1.7, (E)-N′-((3′-tert-butyl-5′-(2,4-dioxotetrahydropyrimidin-1(2H)-yl)-2′-methoxybiphenyl-3-yl)methylene)methanesulfonohydrazide], the pIC50 in experiment [1] is less than 6.00; in experiment [2], 6.00 to 7.00. Moreover, the pEC50 in experiment [3] and in experiment [4] was less than 6.00 throughout.

Regarding `COc1c(-c2cccc(/C(C)=N\NS(C)(=O)=O)c2)cc(N2CCC(=O)NC2=O)cc1C(C)(C)C` [IA-L0-1.8, (Z)—N′-(1-(3′-tert-butyl-5′-(2,4-dioxotetrahydropyrimidin-1(2H)-yl)-2′-methoxybiphenyl-3-yl)ethylidene)methanesulfonohydrazide], the pIC50 in experiment [1] and in experiment [2] was 6.00 to 7.00 in each case. In addition, the pEC50 in experiment [3] and in experiment [4] was less than 6.00 in each case.

Regarding `CCc1cc(N2CCC(=O)NC2=O)cc(C(=O)Nc2ccc(NS(C)(=O)=O)cc2)c1O` [IA-L3-1.113, 5-(2,4-dioxotetrahydropyrimidin-1(2H)-yl)-3-ethyl-2-hydroxy-N-(4-(methylsulfonamido)phenyl)benzamide], the pIC50 in experiment [1] and in experiment [2] was less than 6.00 throughout. Further, the pEC50 in experiment [3] and in experiment [4] was less than 6.00 in each case.
